Assay results published in patent US20110091472A1, “COMPOSITIONS FOR TREATING PSORIASIS” (Novartis Vaccines and Diagnostic, Inc., priority 1999, published 2011).

Tested on: lesional psoriatic skin grafted onto SCID mice
Experiment: SCID mouse psoriatic skin graft model, methotrexate alone or in combination with low dose 5D12
Assay type: in vivo
Details: methotrexate 0.1 to 0.4 mg/kg increasing regimen in combination with the isotype control antibody
Protocol: This experiment was conducted, using the mouse model described in Example 1, to quantitate the anti-psoriatic effects of low doses of anti-CD40 antibody. The low-dose treatment with antibody 5D12 consisted of intraperitoneal injections of mice with 0.5 mg/kg 5D12 every other day for two weeks. High-dose treatment consisted of intraperitoneal injections of mice with 5 mg/kg 5D12 every other day for two weeks. […] The treatment control group consisted of mice injected intraperitoneally with isotype control antibody for two weeks. Four weeks after the termination of the treatments, the grafts were harvested and either fixed in formaldehyde or snap-frozen. Fixed material was used for morphological analyses based on H+E staining, and the snap-frozen material used for additional immunohistochemical analyses.
The effects of methotrexate treatment alone or in combination with low dose (0.5 mg/kg) 5D12 treatment were evaluated. An increasing dosing regimen was chosen, starting with 0.1 mg/kg and increasing the dose by 0.05 mg/kg every week until 0.4 mg/kg was reached. The scheme was combined with the application of the isotype control antibody or with the low dose 5D12 treatment schedule. The isotype control treatment served as a negative control and the low dose 5D12 treatment as a positive control.

CN(Cc1cnc2nc(N)nc(N)c2n1)c1ccc(C(=O)N[C@@H](CCC(=O)O)C(=O)O)cc1 [Methotrexate]
effects on epidermal thickness (in words): only minimal effects on epidermal thickness
